# From ChEMBL document CHEMBL6096699, “Tröger's Base as a Potential Bridge to Type-I Photosensitizers: Mechanism and Antitumor Applications” (J Med Chem, 2025)
# Calls of active or inactive are those of the source. No cut-off for these calls is given here.
# What was measured:
# A549 [1] = test: Inhibition of cell migration in human A549 cells assessed as appearance of blurred cells at 0.25 uM preincubated for 12 hrs followed by incubation under dark condition and measured after 48 hrs by wound healing assay; assay type: functional, cell-based; settings: time 60.0 hrs
# [2] = Phototoxicity against human A549 cells assessed as reduction in cell proliferation irradiated with LED light at 1.8 mWcm/2 for 2 hrs and measured after 24 hrs under normoxia condition by MTT assay; assay type: functional, cell-based; settings: A549, light or radiation study
# MDA-MB-231 = test: Phototoxicity against human MDA-MB-231 cells assessed as reduction in cell proliferation at 0.156 to 10 uM irradiated with LED light at 1.8 mWcm/2 for 2 hrs and measured after 24 hrs under normoxia condition by MTT assay; assay type: functional, cell-based; settings: dose 0.156-10 µM, time 26.0 hrs
# A549 [3] = test: Activation of ERK1/2 pathway in human A549 cells assessed as increase in ERK phosphorylation level at 2.5 to 5 uM by Western blot analysis; assay type: cell-based; settings: filed as activator, dose 2.5-5 µM
# A549 [4] = test: Activation of ERK1/2 pathway in human A549 cells assessed as effect on ERK protein expression at 2.5 to 5 uM by Western blot analysis; assay type: cell-based; settings: filed as activator, dose 2.5-5 µM
# A549 [5] = test: Inhibition of cell migration in human A549 cells at 0.25 uM preincubated for 12 hrs followed by LED light irradiation 1.8 mW cm/2 for 2 hrs and measured after 48 hrs by wound healing assay; assay type: functional, cell-based; settings: time 62.0 hrs
# [6] = molecular target: Signal transducer and activator of transcription 3 (Homo sapiens) (UniProt P40763); test: Inhibition of STAT3 pathway in human A549 cells assessed as decrease in STAT3 phosphorylation level at 2.5 to 5 uM by Western blot analysis; assay type: cell-based; settings: dose 2.5-5 µM
# A549 [7] = test: Induction of apoptosis in human A549 cells assessed as downregulation of Bcl-2 expression at 2.5 to 5 uM with irradiation of LED light at 1.8 mW cm/2 by Western blot analysis; assay type: functional, cell-based; settings: dose 2.5-5 µM
# [8] = Developmental toxicity in wild type AB zebrafish assessed as hatching rate at 50 uM incubated for 72 hrs followed by LED light irradiation at 1.8 mW cm/2 relative to control; design: species or system Danio rerio; settings: in vivo
# A549 [9] = test: Inhibition of cell migration in human A549 cells at 0.25 uM preincubated for 12 hrs followed by incubation under dark condition and measured after 48 hrs by wound healing assay; assay type: functional, cell-based; settings: time 60.0 hrs
# A549 [10] = test: Activation of MAPK pathway in human A549 cells assessed as increase in MAPK phosphorylation level at 2.5 to 5 uM by Western blot analysis; assay type: cell-based; settings: filed as activator, dose 2.5-5 µM
# A549 [11] = test: Induction of apoptosis in human A549 cells assessed as downregulation of caspase-3 expression at 2.5 to 5 uM with irradiation of LED light at 1.8 mW cm/2 by Western blot analysis; assay type: functional, cell-based; settings: dose 2.5-5 µM
# [12] = Dark toxicity in human HBE cells assessed as cell viability incubated for 24 hrs in dark by MTT assay; assay type: cell-based
# A549 [13] = test: Induction of apoptosis in human A549 cells assessed as increase in nuclear shrinkage at 2.5 to 5 uM incubated for 30 mins with irradiation of LED light at 1.8 mW cm/2 by Hoechst 33342 staining based light microscopy analysis; assay type: functional, cell-based; settings: dose 2.5-5 µM
# HepG2 = test: Phototoxicity against human HepG2 cells assessed as reduction in cell proliferation at 0.156 to 10 uM irradiated with LED light at 1.8 mWcm/2 for 2 hrs and measured after 24 hrs under normoxia condition by MTT assay; assay type: functional, cell-based; settings: dose 0.156-10 µM, time 26.0 hrs
# A549 [14] = test: Induction of apoptosis in human A549 cells assessed as upregulation of cleaved Bax expression at 2.5 to 5 uM with irradiation of LED light at 1.8 mW cm/2 by Western blot analysis; assay type: functional, cell-based; settings: dose 2.5-5 µM
# [15] = molecular target: T1, c-Jun N-terminal kinase, JNK (Homo sapiens) (UniProt P45983+P53779+P45984); test: Activation of JNK pathway in human A549 cells assessed as increase in JNK phosphorylation level at 2.5 to 5 uM by Western blot analysis; assay type: cell-based; settings: filed as activator, dose 2.5-5 µM
# [16] = Induction of type-1 ROS generation in tetrahydrofuran at 0.5 uM followed by LED white light irradiation at 1.8 mWcm/2 for 300 sec by DCFH staining based analysis; assay type: functional
# [17] = Drug localization in mitochondria of human A549 cells assessed as colocalization by Mitotracker res staining based analysis; assay type: ADME
# Mitochondrial membrane [18] = test: Induction of mitochondrial membrane potential loss in human A549 cells assessed as increase in green fluorescence of JC-1 monomers at 0.4 to 1.2 uM incubated for 24 hrs with irradiation of LED light at 1.8 mW cm/2 by light microscopy analysis; assay type: cell membranes; settings: dose 0.4-1.2 µM
# A549 [19] = test: Inhibition of cell migration in human A549 cells assessed as appearance of loose cells at 0.25 uM preincubated for 12 hrs followed by incubation under dark condition and measured after 48 hrs by wound healing assay; assay type: functional, cell-based; settings: time 60.0 hrs
# [20] = Drug localization in ER of human A549 cells assessed as colocalization by ER-Tracker green staining based analysis; assay type: ADME, subcellular, Endoplasmic reticulum
# [21] = molecular target: Signal transducer and activator of transcription 3 (Homo sapiens) (UniProt P40763); test: Inhibition of STAT3 pathway in human A549 cells assessed as decrease in STAT3 protein expression at 2.5 to 5 uM by Western blot analysis; assay type: cell-based; settings: dose 2.5-5 µM
# [22] = Developmental toxicity in wild type AB zebrafish assessed as survival rate at 50 uM incubated for 72 hrs followed by LED light irradiation at 1.8 mW cm/2 relative to control; design: species or system Danio rerio; settings: in vivo
# A549 [23] = test: Induction of intracellular ROS generation in human A549 cells by measuring red fluorescence at 0.4 to 1.2 uM incubated for 24 hrs under dark condition by DHE based fluorescence microscopy analysis; assay type: functional, cell-based; settings: dose 0.4-1.2 µM
# MCF7 = test: Phototoxicity against human MCF7 cells assessed as reduction in cell proliferation at 0.156 to 10 uM irradiated with LED light at 1.8 mWcm/2 for 2 hrs and measured after 24 hrs under normoxia condition by MTT assay; assay type: functional, cell-based; settings: dose 0.156-10 µM, time 26.0 hrs
# A549 [24] = test: Activation of MAPK pathway in human A549 cells assessed as effect on MAPK protein expression at 2.5 to 5 uM by Western blot analysis; assay type: cell-based; settings: filed as activator, dose 2.5-5 µM
# A549 [25] = test: Phototoxicity against human A549 cells assessed as reduction in cell proliferation at 0.156 to 10 uM irradiated with LED light at 1.8 mWcm/2 for 2 hrs and measured after 24 hrs under normoxia condition by MTT assay; assay type: functional, cell-based; settings: dose 0.156-10 µM, time 26.0 hrs
# [26] = Developmental toxicity in wild type AB zebrafish assessed as effect on heart at 50 uM incubated for 72 hrs under dark condition; design: species or system Danio rerio; settings: in vivo
# [27] = Induction of type-2 ROS generation in methanol assessed as generation of single oxygen at 0.5 uM followed by Xe lamp irradiation for 5 mins by DCFH staining based analysis; assay type: functional
# [28] = Developmental toxicity in wild type AB zebrafish assessed as effect on morphological abnormalities at 1.57 to 50 uM incubated for 72 hrs under dark condition; design: species or system Danio rerio; settings: in vivo, dose 1.57-50 µM
# A549 [29] = test: Induction of apoptosis in human A549 cells assessed as upregulation of cleaved caspase-3 expression at 2.5 to 5 uM with irradiation of LED light at 1.8 mW cm/2 by Western blot analysis; assay type: functional, cell-based; settings: dose 2.5-5 µM
# A549 [30] = test: Inhibition of cell migration in human A549 cells assessed as appearance of loose cells at 0.25 uM preincubated for 12 hrs followed by LED light irradiation 1.8 mW cm/2 for 2 hrs and measured after 48 hrs by wound healing assay; assay type: functional, cell-based; settings: time 62.0 hrs
# [31] = Developmental toxicity in wild type AB zebrafish assessed as survival rate at 50 uM incubated for 72 hrs under condition relative to control; design: species or system Danio rerio; settings: in vivo
# A549 [32] = test: Induction of apoptosis in human A549 cells assessed as upregulation of cleaved PARP expression at 2.5 to 5 uM with irradiation of LED light at 1.8 mW cm/2 by Western blot analysis; assay type: functional, cell-based; settings: dose 2.5-5 µM
# A549 [33] = test: Antitumor activity in human A549 cells xenografted in Ab wild type Zebrafish embryos assessed as decrease in tumor growth by measuring fluorescence intensity at 2.9 to 5.8 ng preincubated for 12 hrs followed by irradiation of LED light of 1.8 mW cm/2 for 2 hrs and measured after 48 to 72 hrs; assay type: functional, cell-based; settings: dose 2.9-5.8 ng, time 62-86 hrs
# [34] = molecular target: T1, c-Jun N-terminal kinase, JNK (Homo sapiens); test: Activation of JNK pathway in human A549 cells assessed as effect on JNK protein expression at 2.5 to 5 uM by Western blot analysis; assay type: cell-based; settings: filed as activator, dose 2.5-5 µM
# [35] = Developmental toxicity in wild type AB zebrafish assessed as hatching rate at 50 uM incubated for 72 hrs under dark condition; design: species or system Danio rerio; settings: in vivo
# A549 [36] = test: Inhibition of cell migration in human A549 cells assessed as appearance of blurred cells at 0.25 uM preincubated for 12 hrs followed by LED light irradiation 1.8 mW cm/2 for 2 hrs and measured after 48 hrs by wound healing assay; assay type: functional, cell-based; settings: time 62.0 hrs
# [37] = Developmental toxicity in wild type AB zebrafish assessed as effect on heart at 50 uM incubated for 72 hrs followed by LED light irradiation at 1.8 mW cm/2 relative to control; design: species or system Danio rerio; settings: in vivo
# [38] = Developmental toxicity in wild type AB zebrafish assessed as effect on morphological abnormalities at 1.57 to 50 uM incubated for 72 hrs followed by LED light irradiation at 1.8 mW cm/2; design: species or system Danio rerio; settings: in vivo, dose 1.57-50 µM
# [39] = Photophysical property of the compound assessed as fluorescence quantum yield; assay type: physicochemical
# A549 [40] = test: Induction of intracellular ROS generation in human A549 cells by measuring red fluorescence at 0.4 to 1.2 uM incubated for 24 hrs in presence of LED light irradiation at 1.8 mW cm/2 by DHE based fluorescence microscopy analysis; assay type: functional, cell-based; settings: dose 0.4-1.2 µM
# Mitochondrial membrane [41] = test: Induction of mitochondrial membrane potential loss in human A549 cells assessed as decrease in red fluorescence of JC-1 aggregates at 0.4 to 1.2 uM incubated for 24 hrs with irradiation of LED light at 1.8 mW cm/2 by light microscopy analysis; assay type: cell membranes; settings: dose 0.4-1.2 µM
# [42] = Induction of type-1 ROS generation in tetrahydrofuran assessed as fold increase in DHR123 fluorescence intensity at 0.5 uM followed by LED white light irradiation at 1.8 mWcm/2 for 300 sec by DCFH staining based analysis; assay type: functional
# Chain of Signal transducer and activator of transcription 3 (Homo sapiens) (P40763 whole entry): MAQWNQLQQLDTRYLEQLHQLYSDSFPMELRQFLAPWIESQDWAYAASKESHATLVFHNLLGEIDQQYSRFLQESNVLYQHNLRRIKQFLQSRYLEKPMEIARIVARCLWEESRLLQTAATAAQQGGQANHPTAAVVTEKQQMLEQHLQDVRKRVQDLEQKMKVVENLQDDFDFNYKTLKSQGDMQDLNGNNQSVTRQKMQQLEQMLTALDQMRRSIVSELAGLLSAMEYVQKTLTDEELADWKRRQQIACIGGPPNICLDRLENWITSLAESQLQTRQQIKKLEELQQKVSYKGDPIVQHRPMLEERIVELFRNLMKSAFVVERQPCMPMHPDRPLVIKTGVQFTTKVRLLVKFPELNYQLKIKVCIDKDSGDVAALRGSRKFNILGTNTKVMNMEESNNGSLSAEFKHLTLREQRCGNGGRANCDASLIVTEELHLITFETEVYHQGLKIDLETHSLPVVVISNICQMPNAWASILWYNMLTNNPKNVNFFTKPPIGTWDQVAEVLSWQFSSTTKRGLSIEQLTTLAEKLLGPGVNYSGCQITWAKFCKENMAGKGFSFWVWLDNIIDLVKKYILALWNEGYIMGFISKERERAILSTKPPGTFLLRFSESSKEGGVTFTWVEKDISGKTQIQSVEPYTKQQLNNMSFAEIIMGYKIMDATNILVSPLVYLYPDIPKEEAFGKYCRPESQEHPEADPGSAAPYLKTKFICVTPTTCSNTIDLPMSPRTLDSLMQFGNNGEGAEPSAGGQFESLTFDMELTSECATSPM
smiles,measurement,setting,value
CCN(CC)c1ccc2cc(C(=O)/C=C/c3ccc4c(c3)CN3CN4Cc4cc(Br)ccc43)c(=O)oc2c1,inhibition,A549 [1],Active
same,IC50,[2],460 nM
same,Activity,MDA-MB-231,Active
same,Activity,A549 [3],Active
same,Activity,A549 [4],Active; Compound Showed Little Change In Protein Expression
same,inhibition,A549 [5],Active
same,inhibition,[6],Active
same,Activity,A549 [7],Active
same,Activity,[8],100%
same,inhibition,A549 [9],Active
same,Activity,A549 [10],Active
same,Activity,A549 [11],Active
same,Activity,[12],Toxic
same,Activity,A549 [13],Active
same,Activity,HepG2,Active
same,Activity,A549 [14],Active
same,Activity,[15],Active
same,Activity,[16],Active
same,Drug uptake,[17],Active
same,Activity,Mitochondrial membrane [18],Active
same,inhibition,A549 [19],Active
same,Drug uptake,[20],Active
same,inhibition,[21],Active
same,"survival at 72 h, 50 µM",[22],100%
same,Activity,A549 [23],inactive
same,Activity,MCF7,Active
same,Activity,A549 [24],Active; Compound Showed Little Change In Protein Expression
same,Activity,A549 [25],Active
same,Activity,[26],Non-toxic
same,Activity,[27],Active
same,Activity,[28],Non-toxic
same,Activity,A549 [29],Active
same,inhibition,A549 [30],Active
same,"survival at 72 h, 50 µM",[31],100%
same,Activity,A549 [32],Active
same,Activity,A549 [33],Active
same,Activity,[34],Active; Compound Showed Little Change In Protein Expression
same,Activity,[35],100%
same,inhibition,A549 [36],Active
same,Activity,[37],Non-toxic
same,Activity,[38],Non-toxic
same,Fluorescence quantum yield,[39],0.12
same,Activity,A549 [40],Active
same,Activity,Mitochondrial membrane [41],Active
same,fold change (FC),[42],25.6
